Measured values from patent publication US9056844B2, “4-substituted-3-benzyloxy-bicyclo[3.1.0]hexane compounds as mGluR 2/3 antagonists” (Eli Lilly and Company, priority 2010, dated 2015).

Assays:
human mGlu4 receptor = target: T1, human mGlu4 receptor (Homo sapiens, UniProt Q14833); test: FLIPR calcium assay for mGlu receptor selectivity, mGlu4 antagonist mode; format: cell-based; settings: inhibition of EC90 glutamate response, read-out: mGlu4 % inhib. @12.5 μM
T1 construct: expressed in transfected cells; host or cells: AV12 cells, co-expressing rat EAAT1 and Galpha15
T1 sequence (Q14833 33-912): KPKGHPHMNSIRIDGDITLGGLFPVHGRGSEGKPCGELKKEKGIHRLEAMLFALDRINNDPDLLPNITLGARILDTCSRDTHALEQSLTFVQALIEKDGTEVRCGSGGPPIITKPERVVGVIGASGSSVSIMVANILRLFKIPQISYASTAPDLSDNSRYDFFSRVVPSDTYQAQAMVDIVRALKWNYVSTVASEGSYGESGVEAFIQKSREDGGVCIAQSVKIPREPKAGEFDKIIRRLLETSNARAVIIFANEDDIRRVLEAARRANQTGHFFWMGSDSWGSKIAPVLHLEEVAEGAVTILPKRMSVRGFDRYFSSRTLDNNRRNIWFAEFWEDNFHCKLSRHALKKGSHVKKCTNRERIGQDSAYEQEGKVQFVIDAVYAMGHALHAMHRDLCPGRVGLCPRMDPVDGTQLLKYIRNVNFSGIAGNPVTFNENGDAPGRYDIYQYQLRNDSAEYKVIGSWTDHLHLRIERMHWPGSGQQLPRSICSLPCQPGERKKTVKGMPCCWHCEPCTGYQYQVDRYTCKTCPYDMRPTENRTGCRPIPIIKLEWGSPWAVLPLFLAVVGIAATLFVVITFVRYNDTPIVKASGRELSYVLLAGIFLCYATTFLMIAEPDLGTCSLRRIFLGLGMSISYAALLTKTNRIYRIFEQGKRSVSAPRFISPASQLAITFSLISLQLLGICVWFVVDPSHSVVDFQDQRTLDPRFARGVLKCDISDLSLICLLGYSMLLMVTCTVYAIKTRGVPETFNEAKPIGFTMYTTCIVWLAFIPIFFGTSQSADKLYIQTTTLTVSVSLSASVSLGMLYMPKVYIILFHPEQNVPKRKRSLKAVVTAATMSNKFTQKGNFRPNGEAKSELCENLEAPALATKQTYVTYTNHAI
Excerpt: FLIPR and cAMP Assays for mGlu Receptor Selectivity
The relative antagonist potencies of the compounds of the invention for the other human mGlu receptors can be assessed with either a cAMP assay or fluorometric calcium response assay (see for example Fell et al., JPET (in press)). Briefly, individual AV12 cell lines containing the rat EAAT1 glutamate transporter and stably expressing the human mGlu1, 2, 3, 4, 5, 6, & 8 receptors are used for these studies. The mGlu1 and 5 receptors are […], so they naturally signal through phospholipase C, producing a calcium flux response which can be used to measure receptor activation using a Fluorometric Imaging Plate Reader (FLIPR, Molecular Devices). The cell lines expressing the mGlu2, 3, 4, and 8 receptor are designed to express the Gα15 subunit so that these Gi-coupled receptors will generate a calcium flux response similar to the mGlu1 and 5 receptor expressing cell lines. The mGlu6 receptor is tested in a cAMP format using methods analogous to those developed for mGlu2 and mGlu3 above. These cell lines are maintained as previously described except that amounts of L-glutamine and selection agents (geneticin, hygromycin B, zeocin, and blasticidin) may vary depending on the cell line. Confluent cultures are passaged biweekly.
Intracellular calcium levels are monitored using FLIPR before and after the addition of test compounds and Fluo-3 AM (Invitrogen) or Calcium 4 (Molecular Devices) dye, depending on the cell line. Cells are plated 24 hours prior to assay in a variable concentration of glutamine and a variable density of cells per well, depending on the cell line. The medium is removed and the cells are incubated with 8 μM of dye (50 μl per well) for 90 or 120 minutes (depending on cell line) at 25° C. A single-addition FLIPR assay generating an 11-point concentration response curve for the agonist glutamate is conducted prior to each experiment to confirm the appropriate sensitivity of the cells. The results are analyzed using GraphPad Prism v4.03 to calculate the concentrations of glutamate needed to induce the EC90 (antagonist assay) and EC10 (potentiator assay) responses.
Compounds are tested at each mGlu receptor in a two-addition FLIPR assay using a 10-point concentration response profile starting at a final concentration of 25 μM for the agonist assay and 12.5 μM for the potentiator and antagonist assays. The first addition detects any agonist activity, and the second addition consists of 100 μl of select concentrations (depending on cell line) of glutamate in assay buffer generating an EC10 or EC90 glutamate response. Agonist effects are quantified as percent stimulation induced by compound alone relative to the maximal glutamate response. Antagonist effects are quantified by calculating the percent inhibition of the EC90 glutamate response caused by the compound. Potentiation effects are quantified as percent increase in the presence of an EC10 response in glutamate relative to the ECmax response. All data are calculated as relative IC50 or EC50 values using a four-parameter logistic curve fitting program (ActivityBase v5.3.1.22).

[1] = target: serotonin receptor 5-HT2B (Homo sapiens, UniProt P41595); test: Off-target activity, known assay methods: 5-HT2B
Sequence of serotonin receptor 5-HT2B (P41595 whole entry): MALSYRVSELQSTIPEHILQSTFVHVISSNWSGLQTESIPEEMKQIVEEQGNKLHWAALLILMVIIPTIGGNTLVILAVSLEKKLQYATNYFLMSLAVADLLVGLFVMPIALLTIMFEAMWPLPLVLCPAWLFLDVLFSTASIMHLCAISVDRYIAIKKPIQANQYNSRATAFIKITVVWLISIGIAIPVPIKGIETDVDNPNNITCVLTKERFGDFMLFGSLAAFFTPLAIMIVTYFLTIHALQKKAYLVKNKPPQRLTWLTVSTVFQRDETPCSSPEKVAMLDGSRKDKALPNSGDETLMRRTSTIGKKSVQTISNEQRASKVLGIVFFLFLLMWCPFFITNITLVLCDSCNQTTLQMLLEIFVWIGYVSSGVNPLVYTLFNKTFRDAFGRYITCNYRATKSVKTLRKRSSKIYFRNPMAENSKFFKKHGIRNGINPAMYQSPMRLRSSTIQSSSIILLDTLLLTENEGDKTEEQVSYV
Excerpt: (§1) Further, certain compounds of the present invention show a lack of significant activity at other physiologically important receptors such as, but not limited to, the hERG channel, serotonin receptors (specifically 5-HT2A and 5-HT2B), muscarinic receptors (specifically M2), and iGluR receptors (specifically iGluR5).

human mGlu3 receptors = target: T2, human mGlu3 receptors (Homo sapiens, UniProt Q14832); test: mGlu3 receptor cAMP antagonist assay; format: cell-based; settings: reversal of DCG IV (EC90) inhibition of forskolin-stimulated cAMP; AV12 cells
T2 construct: expressed in transfected cells; host or cells: AV12 cells, co-expressing rat EAAT1
T2 sequence (Q14832 23-879): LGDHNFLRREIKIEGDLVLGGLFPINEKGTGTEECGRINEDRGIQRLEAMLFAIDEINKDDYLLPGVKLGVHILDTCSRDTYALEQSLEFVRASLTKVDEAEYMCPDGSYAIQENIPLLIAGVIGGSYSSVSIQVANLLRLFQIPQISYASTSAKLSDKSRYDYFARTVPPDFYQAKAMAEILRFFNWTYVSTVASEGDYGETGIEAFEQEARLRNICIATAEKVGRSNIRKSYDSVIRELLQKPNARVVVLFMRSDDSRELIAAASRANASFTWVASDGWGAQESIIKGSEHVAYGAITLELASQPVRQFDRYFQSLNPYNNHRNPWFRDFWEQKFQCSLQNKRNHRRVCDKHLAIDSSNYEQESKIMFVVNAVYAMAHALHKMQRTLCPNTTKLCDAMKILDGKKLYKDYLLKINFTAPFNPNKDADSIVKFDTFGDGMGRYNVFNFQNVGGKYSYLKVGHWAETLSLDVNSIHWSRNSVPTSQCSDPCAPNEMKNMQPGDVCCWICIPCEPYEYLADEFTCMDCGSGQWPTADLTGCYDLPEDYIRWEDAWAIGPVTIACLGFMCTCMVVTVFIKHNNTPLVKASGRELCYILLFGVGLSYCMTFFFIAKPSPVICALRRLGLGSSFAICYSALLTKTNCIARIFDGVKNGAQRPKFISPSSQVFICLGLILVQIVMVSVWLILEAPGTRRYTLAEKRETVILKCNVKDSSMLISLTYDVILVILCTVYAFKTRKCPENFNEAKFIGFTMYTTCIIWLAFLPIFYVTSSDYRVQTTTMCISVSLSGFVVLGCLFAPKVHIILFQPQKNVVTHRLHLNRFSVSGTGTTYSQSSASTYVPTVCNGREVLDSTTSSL
Protocol: mGlu2 and mGlu3 Receptor cAMP Antagonist Assays
Antagonist activity is assayed in recombinant AV12 cells stably expressing human mGlu2 or mGlu3 receptors and the rat glutamate transporter EAAT1 (Excitatory Amino Acid Transporter 1). The cell lines are maintained by culturing in DMEM with high glucose and pyridoxine hydrochloride supplemented with 5% dialyzed fetal bovine serum (FBS), 1 mM sodium pyruvate, 1 mM HEPES and 1 mM L-glutamine; geneticin and hygromycin B are used as selection antibiotics. Confluent cultures are grown at 37° C. in an atmosphere containing 6.5% CO2, and passaged biweekly. Cells are harvested using 0.25% trypsin, suspended in freeze media (FBS with 10% DMSO) at 10^7 cells/ml, and aliquots are stored in liquid nitrogen. Twenty-four hours before the assay, cells are plated at a density of 8,000-10,000 cells per well in a tissue culture treated, 96-well, half-area black plates (Costar 3875) in 50 μl of DMEM with high glucose and pyridoxine hydrochloride supplemented with 5% dialyzed FBS, 1 mM sodium pyruvate, 1 mM HEPES, 100 μg/ml ampicillin, and 250 μM (mGlu2) or 125 μM (mGlu3) of L-glutamine.
Reversal of the inhibition of forskolin-stimulated cAMP production by test compounds is measured using homogeneous time resolved fluorescence technology (HTRF; Cisbio cat #62AM4PEB). The medium is removed and the cells are incubated with 100 μl cAMP stimulation buffer (STIM) for 30 minutes at 37° C. (STIM buffer contains 500 ml HBSS, 1000 ml DPBS, 0.034% BSA, 1.67 mM HEPES and 500 μM IBMX (Sigma 15879).) Compounds are tested in 10-point concentration response curves using 3× serial dilution followed by further 40-fold dilution into STIM buffer. DCG IV (Tocris 0975) serves as the reference agonist. The final reaction mixture contains 1 μM (for mGlu2) or 3 μM (for mGlu3) of forskolin (Sigma F6886), DCG IV at its EC90, and up to 25 μM of test compound. Cells are incubated at 37° C. for 20 minutes. To measure the cAMP levels, cAMP-d2 conjugate and anti cAMP-cryptate conjugate in lysis buffer are incubated with the treated cells at room temperature for 1 hour (mGlu2) or 1.5 hour (mGlu3). The HTRF signal is detected using an EnVision plate reader (Perkin-Elmer) to calculate the ratio of fluorescence at […]. The raw data are converted to cAMP amount (pmole/well) using a cAMP standard curve generated for each experiment. Relative IC50 values are calculated from the top-bottom range of the concentration response curve using a four-parameter logistic curve fitting program (ActivityBase v5.3.1.22).

hERG channel = hERG channel (Homo sapiens, UniProt Q12809); test: Off-target activity, known assay methods: hERG
Sequence of hERG channel (Q12809 whole entry): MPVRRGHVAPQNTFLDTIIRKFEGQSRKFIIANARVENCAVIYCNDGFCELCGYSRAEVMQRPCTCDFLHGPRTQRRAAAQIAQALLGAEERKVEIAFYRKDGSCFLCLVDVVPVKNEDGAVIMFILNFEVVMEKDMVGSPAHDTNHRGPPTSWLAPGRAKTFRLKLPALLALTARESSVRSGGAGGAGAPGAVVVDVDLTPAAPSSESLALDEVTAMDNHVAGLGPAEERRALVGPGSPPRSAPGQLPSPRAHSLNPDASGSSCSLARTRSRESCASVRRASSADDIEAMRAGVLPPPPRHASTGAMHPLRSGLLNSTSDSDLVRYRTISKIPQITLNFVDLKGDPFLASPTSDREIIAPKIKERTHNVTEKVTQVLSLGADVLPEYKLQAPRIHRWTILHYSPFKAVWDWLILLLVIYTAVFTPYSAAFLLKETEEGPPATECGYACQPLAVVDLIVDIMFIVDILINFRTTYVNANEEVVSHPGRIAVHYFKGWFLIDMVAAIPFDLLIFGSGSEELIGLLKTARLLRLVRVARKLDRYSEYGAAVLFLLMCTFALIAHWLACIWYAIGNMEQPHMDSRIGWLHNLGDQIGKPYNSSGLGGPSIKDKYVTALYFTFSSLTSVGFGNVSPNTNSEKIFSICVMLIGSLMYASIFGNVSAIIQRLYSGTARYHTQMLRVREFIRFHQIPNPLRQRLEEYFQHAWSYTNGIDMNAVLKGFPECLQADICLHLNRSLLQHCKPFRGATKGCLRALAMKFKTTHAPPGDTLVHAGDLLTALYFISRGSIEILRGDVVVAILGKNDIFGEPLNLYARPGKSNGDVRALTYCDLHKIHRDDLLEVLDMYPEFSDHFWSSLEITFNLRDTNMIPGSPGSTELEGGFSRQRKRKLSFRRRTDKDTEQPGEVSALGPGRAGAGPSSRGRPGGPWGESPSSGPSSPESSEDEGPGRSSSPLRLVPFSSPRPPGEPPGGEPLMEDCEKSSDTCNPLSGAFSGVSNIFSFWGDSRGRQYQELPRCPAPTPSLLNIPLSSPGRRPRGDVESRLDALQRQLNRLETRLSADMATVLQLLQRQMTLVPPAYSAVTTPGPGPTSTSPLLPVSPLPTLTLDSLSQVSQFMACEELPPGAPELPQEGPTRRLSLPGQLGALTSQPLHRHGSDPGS
Excerpt: as §1

inhibition at 12.5 µM (human mGlu4 receptor) | activity at 5-HT2B [1] | IC50 (human mGlu3 receptors) | Structure (SMILES) | activity at the hERG channel (hERG channel)
28.5% | no appreciable activity | 27.2 ± 4.2 nM | N[C@]1(C(=O)O)[C@@H]2[C@@H](C(=O)O)[C@@H]2[C@H](O)[C@H]1OCc1ccc(Cl)c(Cl)c1 [Example 1, (1S,2R,3S,4S,5R,6R)-2-Amino-3-[(3,4-dichlorobenzyl)oxy]-4-hydroxybicyclo[3.1.0]hexane-2,6-dicarboxylic acid] | no appreciable activity
69% |  | 7.8 nM | N[C@]1(C(=O)O)[C@@H]2[C@@H](C(=O)O)[C@@H]2[C@H](Sc2nc[nH]n2)[C@H]1OCc1ccc(Cl)c(Cl)c1 [Example 2, (1R,2R,3S,4S,5R,6R)-2-Amino-3-[(3,4-dichlorobenzyl)oxy]-4-(1H-1,2,4-triazol-3-ylsulfanyl)bicyclo[3.1.0]hexane-2,6-dicarboxylic acid] | 
32.2% |  | 34.8 ± 6.9 nM | Cl.Cn1cnc(S[C@H]2[C@H]3[C@H](C(=O)O)[C@H]3[C@](N)(C(=O)O)[C@@H]2OCc2ccc(Cl)c(Cl)c2)n1 [Example 7, (1R,2R,3S,4S,5R,6R)-2-Amino-3-[(3,4-dichlorophenyl)methoxy]-4-[(1-methyl-1,2,4-triazol-3-yl)sulfanyl]bicyclo[3.1.0]hexane-2,6-dicarboxylic acid hydrochloride.] | 
46.9% |  | 4.4 ± 0.5 nM | Cl.N[C@]1(C(=O)O)[C@@H]2[C@@H](C(=O)O)[C@@H]2[C@H](NC(=O)CO)[C@H]1OCc1ccc(Cl)c(Cl)c1 [Example 9, (1S,2R,3R,4S,5R,6S)-2-Amino-3-[(3,4-dichlorobenzyl)oxy]-4-[(hydroxyacetyl)amino]bicyclo[3.1.0]hexane-2,6-dicarboxylic acid hydrochloride] | 

Structure (SMILES) | inhibition at 12.5 µM (human mGlu4 receptor) | activity at 5-HT2B [1] | IC50 (human mGlu3 receptors) | activity at the hERG channel (hERG channel)
CC(=O)N[C@H]1[C@H]2[C@H](C(=O)O)[C@H]2[C@](N)(C(=O)O)[C@@H]1OCc1ccc(Cl)c(Cl)c1 [Example 4, (1S,2R,3R,4S,5R,6S)-4-(Acetylamino)-2-amino-3-[(3,4-dichlorobenzyl)oxy]bicyclo[3.1.0]hexane-2,6-dicarboxylic acid] | 13.3% |  | 8.2 ± 0.3 nM | 
